Patent publication US5196513A, “Synthetic peptides derived from the beta-subunit of human thyroid stimulating hormone” (Mayo Foundation for Medical Education and Research, priority 1991, dated 1993)
Residues, ends and D or L forms follow the SMILES beside them.

Tests used:
[1] = target: T1, porcine TSH receptor (porcine thyroid membranes) (Sus scrofa, UniProt Q8SPP9); experiment: Porcine thyroid membrane TSH radio-receptor assay (inhibition of 125I-bTSH binding); conditions: concentration inhibiting 125I-bTSH binding to porcine thyroid membrane by 50%; mean ± se of at least 3 assays
T1 construct: Frozen porcine thyroid glands were purchased; tissue Pel-Freez Biologicals; host or cells: porcine thyroid glands, crude membrane preparation
T1 sequence (Q8SPP9 22-764): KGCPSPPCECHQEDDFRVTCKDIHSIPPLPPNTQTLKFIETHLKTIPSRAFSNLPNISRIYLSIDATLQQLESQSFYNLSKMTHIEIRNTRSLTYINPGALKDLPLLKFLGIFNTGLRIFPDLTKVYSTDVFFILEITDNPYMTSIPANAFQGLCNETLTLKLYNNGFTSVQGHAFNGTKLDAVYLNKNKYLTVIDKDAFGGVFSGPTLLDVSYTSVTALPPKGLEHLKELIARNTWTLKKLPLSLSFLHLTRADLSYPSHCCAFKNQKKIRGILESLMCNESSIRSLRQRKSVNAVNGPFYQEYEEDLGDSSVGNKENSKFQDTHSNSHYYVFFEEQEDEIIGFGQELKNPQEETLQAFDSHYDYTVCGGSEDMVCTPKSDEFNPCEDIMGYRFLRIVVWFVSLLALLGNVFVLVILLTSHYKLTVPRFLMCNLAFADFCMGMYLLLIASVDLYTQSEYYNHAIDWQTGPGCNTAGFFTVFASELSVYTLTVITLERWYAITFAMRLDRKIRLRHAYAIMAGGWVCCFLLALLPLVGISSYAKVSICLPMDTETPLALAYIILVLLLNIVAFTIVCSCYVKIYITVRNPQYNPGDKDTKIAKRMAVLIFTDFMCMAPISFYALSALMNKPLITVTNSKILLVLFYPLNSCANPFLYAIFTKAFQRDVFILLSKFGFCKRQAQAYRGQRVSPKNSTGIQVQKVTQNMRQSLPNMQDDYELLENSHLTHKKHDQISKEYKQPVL
Source text: (§1) Frozen porcine thyroid glands were purchased (Pel-Freez Biologicals, Rogers, Ak.) and prepared using the same procedures as for the human glands.
(§2) Highly purified bTSH (30 U/mg, supplied by Dr. J. G. Pierce, formerly of UCLA) was radio-iodinated (Na^125 I, Amersham, Chicago) by a lactoperoxidase technique to a specific activity averaging 40-50 μCi/μg as previously described, Takahashi et al., supra, then purified by Sephadex G-100 chromatography.
(§3) The TSH radio-receptor assay (RRA) utilized for the studies has been well described previously; see Takahashi et al., supra and Morris et al., Endocrinology, 123:456-462 (1988), the disclosure of which is incorporated by reference herein. Briefly, for either human or porcine thyroid RRA, the incubation mixture consisted of the following: 10 mg equivalents of wet weight (mg eq) crude thyroid membrane preparation, 0.124 ng [^125 I]iodo-bTSH (approximately 20,000 cpm), 0.2% Triton X-100, and the noted amounts of synthetic peptides or unlabeled bTSH in 0.5 ml 40 mM Tris, 0.1% BSA, pH 7.4. Bound label was separated from free after 2 hrs incubation at 25° C. by addition of a 1 ml 30% polyethylene glycol (PEG, Baker, Phillipsburg, N.J.) 6000 in 1M NaCl and centrifugation. The resulting pellet was counted in a gamma counter. Non-specific binding was determined by addition of a 100 mU/ml crude bTSH (Sigma, St. Louis).

FRTL5 cells [2] = target: T2, FRTL5 cells (Rattus norvegicus, UniProt P21463); experiment: TSab bioassay, inhibition of TSab-stimulated cAMP generation in FRTL5 cells; assay type: cell-based; conditions: for Serum samples in which TSab-stimulated cAMP was significantly inhibited (p<0.05) / samples tested: peptide 150 μg/ml; for Inhibition of TSab-stimulated cAMP generation (in words): peptide 50 and 150 μg/ml
T2 sequence (P21463 22-764): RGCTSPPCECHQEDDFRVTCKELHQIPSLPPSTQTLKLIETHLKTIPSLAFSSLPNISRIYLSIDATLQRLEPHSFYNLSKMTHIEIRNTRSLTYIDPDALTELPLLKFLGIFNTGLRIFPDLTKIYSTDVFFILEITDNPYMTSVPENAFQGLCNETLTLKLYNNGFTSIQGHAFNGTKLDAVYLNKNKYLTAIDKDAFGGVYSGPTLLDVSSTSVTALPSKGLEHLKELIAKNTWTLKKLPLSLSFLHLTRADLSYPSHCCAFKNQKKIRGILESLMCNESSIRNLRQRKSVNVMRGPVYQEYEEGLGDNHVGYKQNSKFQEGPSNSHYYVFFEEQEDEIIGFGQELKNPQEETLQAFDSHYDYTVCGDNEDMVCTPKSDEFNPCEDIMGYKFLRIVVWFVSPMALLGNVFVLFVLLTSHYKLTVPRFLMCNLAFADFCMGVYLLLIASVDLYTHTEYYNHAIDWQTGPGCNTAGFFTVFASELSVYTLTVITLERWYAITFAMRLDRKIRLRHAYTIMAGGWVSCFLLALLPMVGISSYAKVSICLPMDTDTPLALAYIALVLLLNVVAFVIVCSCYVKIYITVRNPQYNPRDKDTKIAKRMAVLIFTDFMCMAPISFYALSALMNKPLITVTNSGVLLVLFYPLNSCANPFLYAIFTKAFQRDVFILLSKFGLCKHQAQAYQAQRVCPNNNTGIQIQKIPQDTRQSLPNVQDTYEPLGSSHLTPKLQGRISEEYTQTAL
Procedure: (§4) FRTL5 cells were cultured in Hams F-12 medium supplemented with 5% calf serum and a preparation containing 6 hormones (6H), including 10 mU/ml bTSH (Sigma, St. Louis, Mo.), as previously described. Ambesi-Impiombato et al., Proc. Natl. Acad. Sci. U.S.A., 77:3455 (1980), the disclosure of which is incorporated by reference herein. The cells were enzymatically removed from flasks and plated in 24 well plates containing 6H at a density of 150,000 cells per well. After 4 days, the cells were washed and the media replaced with media containing insulin only (1H). All subsequent assays were performed on cells deprived of TSH for 5-7 days.
Serum samples from 15 patients with elevated TSab levels were selected from the clinical chemistry laboratory. The TSab values, expressed as an index, [formula] 63:707 (1988)]ranged from 10-20 with an average of 13.8±3.3. Normal serum has an index of less than 1.3.
The bioassay described by Kasagi et al., supra, with modifications as previously noted above, was used. The immunoglobulins were precipitated from 2 ml of TSab-containing serum with 6 ml of polyethylene glycol 6,000 (Baker; Phillipsburg, N.J.), centrifuged at 3,000×g for 20 minutes, and resuspended in 4 ml of NaCl-free HBSS with 0.5 mM IBMX and 0.5% BSA. The plated cells were washed with NaCl-free HBSS and the crude immunoglobulin extract, mixed with various concentrations of β-subunit peptides, was added in duplicate to the wells (total volume 200 μl/well). The cells were incubated for 2 hours at 37° C. and 5% CO2. The samples were then removed from the cells and a portion diluted 1:50 in NaOAc buffer, pH 6.2. A 25 μl aliquot of this was then used in a cAMP RIA as described above. The basal cAMP levels were determined for each plate of cells in the absence of immunoglobulin extract and β-peptides. A maximal cAMP level was attained by stimulating the cells with the immunoglobulin extract only. The percent increase in cAMP levels above basal was calculated as: [formula] as previously described (see Morris et al., supra). The percent inhibition of cAMP production by the β-subunit peptides was calculated as described above for TSH-stimulated cells, substituting pmol cAMP crude immunoglobulin for pmol cAMP TSH.
Inhibition of TSab activity was tested by comparing the replicates of cAMP levels generated in the presence of peptide to those generated by TSab alone using Student's T test for unpaired samples. Mean inhibition by the various doses of synthetic peptide for the patient group was tested by comparison with maximum cAMP response within each patient sample using the T test for paired samples.

FRTL5 cells [3] = target: T2, FRTL5 cells; experiment: TSH bioassay, inhibition of TSH-mediated cAMP generation in FRTL5 cells; assay type: cell-based
Procedure: as §4
The TSH bioassay was a modification of assays previously described by Bidey et al., J. Endocrinol., 101:269 (1984); and Kasagi et al., ACTA Endocrinol., 115:30 (1987). FRTL5 cells were washed with NaCl-free Hanks balanced salt solution (NaCl-free HBSS) pH 7.3. The cells were then exposed to purified bovine TSH (bTSH) (a gift from Dr. John Pierce, formerly of UCLA) in the presence and absence of specific β-subunit peptides in NaCl-free HBSS with 0.5 mM isobutylmethylxanthine (IBMX, Sigma, St. Louis, Mo.) and 0.5% BSA (Sigma). The total volume in each well was 275 μl. In stimulation assays, only the β-subunit peptides were added. For inhibition assays, two different concentrations of the β-subunit peptides were added to culture wells in duplicate with 200 mU/I of purified bTSH. The plates were incubated for 2 hours at 37° C. in 5% CO2. The media was removed from the cells and a portion diluted 1:50 in 0.05M NaOAc buffer, pH 6.2. A 25 μl aliquot of this was used in a cAMP RIA. Basal cAMP levels were determined in the absence of the TSH or β-subunit peptides. In inhibition assays, the percent inhibition was calculated as noted below (see Morris et al., (1988) supra): [formula]

[4] = target: T3, TSH receptor on human thyroid membranes (Homo sapiens, UniProt P16473); experiment: Human thyroid membrane TSH radio-receptor assay (inhibition of 125I-bTSH binding); conditions: for EC50: concentration inhibiting 125I-bTSH binding to human thyroid membrane by 50%, mean ± se of at least 3 assays; for Inhibition of TSH binding to human thyroid membrane (in words): human thyroid membrane RRA
T3 construct: Crude membrane preparations were prepared from the frozen tissue; from tissue; host or cells: human thyroid tissue (Graves' disease patients), crude 2000 x g membrane fraction
T3 sequence (P16473 21-764): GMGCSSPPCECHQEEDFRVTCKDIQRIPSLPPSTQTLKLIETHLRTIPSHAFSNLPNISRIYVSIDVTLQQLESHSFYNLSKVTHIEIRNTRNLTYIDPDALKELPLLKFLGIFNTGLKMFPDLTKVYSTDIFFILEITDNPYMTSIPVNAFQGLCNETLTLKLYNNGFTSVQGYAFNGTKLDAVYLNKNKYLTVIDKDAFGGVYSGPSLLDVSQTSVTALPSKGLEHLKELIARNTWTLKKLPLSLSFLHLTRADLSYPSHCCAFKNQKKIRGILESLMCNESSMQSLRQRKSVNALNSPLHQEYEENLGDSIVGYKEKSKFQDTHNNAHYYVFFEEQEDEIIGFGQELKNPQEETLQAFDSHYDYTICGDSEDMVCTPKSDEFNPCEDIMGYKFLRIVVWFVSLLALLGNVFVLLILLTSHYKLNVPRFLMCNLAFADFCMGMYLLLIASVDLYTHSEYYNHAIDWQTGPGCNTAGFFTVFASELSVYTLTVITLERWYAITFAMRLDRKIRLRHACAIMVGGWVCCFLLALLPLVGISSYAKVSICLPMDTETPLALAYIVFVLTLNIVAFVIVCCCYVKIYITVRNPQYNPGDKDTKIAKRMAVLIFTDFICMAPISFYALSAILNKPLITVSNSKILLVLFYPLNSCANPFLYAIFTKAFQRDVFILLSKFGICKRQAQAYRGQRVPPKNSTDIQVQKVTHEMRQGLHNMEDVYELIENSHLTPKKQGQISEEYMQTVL
Procedure: Thyroid tissue from patients with Graves' disease was obtained at surgery and promptly frozen and maintained at -70° C. Crude membrane preparations were prepared from the frozen tissue as previously described, Takahashi et al., J. Clin. Endocrinol. Metab., 47:870-876 (1978), the disclosure of which is incorporated by reference herein. Briefly, the tissue was homogenized with a Polytron homogenizer (Brinkmann Instruments,Westbury, N.Y.), and the 2000×g fraction was collected by centrifugation, washed, and resuspended in 40 mM Tris, 200 mM sucrose, pH 7.4. Membrane preparations were maintained at -70° C. until assay.
as §2, §3

[5] = target: T4, EGF thyroid membrane receptor (Sus scrofa, UniProt A0A5G2R2I8); experiment: Porcine thyroid membrane epidermal growth factor radio-receptor assay; assay type: binding; conditions: [125I]iodo-EGF, read-out: EC50 of unlabeled EGF in EGF RRA
T4 construct: The incubation mixture consisted of 40 mg eq crude thyroid membrane; tissue Pel-Freez Biologicals; host or cells: porcine thyroid glands, crude membrane preparation
T4 sequence (A0A5G2R2I8 22-1210): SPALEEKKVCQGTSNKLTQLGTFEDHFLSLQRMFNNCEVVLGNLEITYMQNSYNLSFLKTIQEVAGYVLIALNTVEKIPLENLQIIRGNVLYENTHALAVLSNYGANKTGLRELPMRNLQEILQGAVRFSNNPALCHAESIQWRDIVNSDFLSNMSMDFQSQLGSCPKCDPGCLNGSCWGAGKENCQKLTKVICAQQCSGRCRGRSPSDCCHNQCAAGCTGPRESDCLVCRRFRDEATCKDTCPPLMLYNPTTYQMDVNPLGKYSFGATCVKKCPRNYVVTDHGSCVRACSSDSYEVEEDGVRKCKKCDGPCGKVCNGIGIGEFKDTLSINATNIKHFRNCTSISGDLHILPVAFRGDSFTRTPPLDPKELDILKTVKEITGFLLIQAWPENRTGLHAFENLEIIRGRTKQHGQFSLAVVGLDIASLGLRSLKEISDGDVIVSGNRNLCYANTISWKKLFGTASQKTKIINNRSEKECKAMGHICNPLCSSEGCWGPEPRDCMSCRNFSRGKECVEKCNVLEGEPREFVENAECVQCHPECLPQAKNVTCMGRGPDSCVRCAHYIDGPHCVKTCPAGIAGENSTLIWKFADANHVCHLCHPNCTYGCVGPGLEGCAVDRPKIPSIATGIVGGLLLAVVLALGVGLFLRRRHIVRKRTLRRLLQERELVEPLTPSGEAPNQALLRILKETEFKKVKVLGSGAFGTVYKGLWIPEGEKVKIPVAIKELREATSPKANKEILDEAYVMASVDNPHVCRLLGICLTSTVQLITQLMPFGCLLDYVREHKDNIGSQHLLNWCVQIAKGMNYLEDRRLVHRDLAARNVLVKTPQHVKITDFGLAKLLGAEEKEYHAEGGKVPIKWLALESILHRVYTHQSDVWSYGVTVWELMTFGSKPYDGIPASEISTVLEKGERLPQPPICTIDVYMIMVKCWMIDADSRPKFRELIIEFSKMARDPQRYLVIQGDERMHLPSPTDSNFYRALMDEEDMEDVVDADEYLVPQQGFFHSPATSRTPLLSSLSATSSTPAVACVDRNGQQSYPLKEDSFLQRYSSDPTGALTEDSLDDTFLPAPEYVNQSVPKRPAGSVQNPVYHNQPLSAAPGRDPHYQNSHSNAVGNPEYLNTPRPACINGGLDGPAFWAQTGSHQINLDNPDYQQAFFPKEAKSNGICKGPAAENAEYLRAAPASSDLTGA
Procedure: as §1
The EGF RRA was a modification of that described by Humphries et al., J. Endocrinol., 102:857-61 (1984), the disclosure of which is incorporated by reference herein. Purified murine EGF (a gift of Dr. N. S. Jiang, Mayo Clinic) was radio-iodinated by a chloramine-T technique to a specific activity of 65 μCi/μg. The incubation mixture consisted of 40 mg eq crude thyroid membrane, 0.5 ng [^125 I]iodo-EGF, and the indicated concentrations of unlabeled EGF or synthetic peptides in 0.5 ml phosphate buffered saline plus 5 mM MgCl2, 1 mM CaCl2, 0.1% BSA, pH 7.4. Non-specific binding was determined by addition of 0.5 μg unlabeled EGF. Bound was separated from free by precipitation with PEG and centrifugation as above.

Compound | EC50 [1] | Serum samples in which TSab-stimulated cAMP was significantly inhibited (p<0.05) / samples tested (FRTL5 cells [2]) | Inhibition of TSab-stimulated cAMP generation (in words) (FRTL5 cells [2]) | Inhibition of TSab-stimulated cAMP generation (in words) (FRTL5 cells [2]; listed as (I)) | Inhibition of TSH-mediated cAMP generation (in words) (FRTL5 cells [3]) | EC50 [4] | Inhibition of TSab-stimulated cAMP generation (in words) (FRTL5 cells [2]; listed as (II)) | Inhibition of TSH binding to human thyroid membrane (in words) [4] | Inhibition of TSab-stimulated cAMP generation (in words) (FRTL5 cells [2]; listed as (III)) | EC50 [5]
CC[C@H](C)[C@H](NC(=O)[C@H](Cc1c[nH]cn1)NC(=O)[C@H](CCSC)NC(=O)[C@@H](NC(=O)[C@H](Cc1ccc(O)cc1)NC(=O)[C@H](CCC(=O)O)NC(=O)[C@@H](NC(=O)[C@@H]1CCCN1C(=O)[C@@H](NC(=O)[C@H](CS)NC(=O)[C@@H](N)Cc1ccccc1)[C@@H](C)CC)[C@@H](C)O)[C@@H](C)O)C(=O)N[C@@H](CCC(=O)O)C(=O)N[C@@H](CCCNC(=N)N)C(=O)N[C@@H](CCCNC(=N)N)C(=O)N[C@@H](CCC(=O)O)C(N)=O [β1-15, Phe-Cys-Ile-Pro-Thr-Glu-Tyr-Thr-Met-His-Ile-Glu-Arg-Arg-Glu] (H-FCIPTEYTMHIERRE-NH2; N-terminus assumed) | 1160 ± 431 µM | 12/12 | significantly inhibited cAMP production | inhibitory effect | effectively inhibit TSH-mediated cAMP generation | 331 ± 45 µM | – | – | – | –
CC(C)C[C@H](N)C(=O)N[C@@H](CO)C(=O)N[C@@H](CS)C(=O)N[C@@H](CCCCN)C(=O)N[C@@H](CS)C(=O)NCC(=O)N[C@@H](CCCCN)C(=O)N[C@@H](CS)C(=O)N[C@@H](CC(N)=O)C(=O)N[C@H](C(=O)N[C@@H](CC(=O)O)C(=O)N[C@@H](Cc1ccc(O)cc1)C(=O)N[C@@H](CO)C(=O)N[C@@H](CC(=O)O)C(=O)N[C@@H](CS)C(N)=O)[C@@H](C)O [β81-95, Leu-Ser-Cys-Lys-Cys-Gly-Lys-Cys-Asn-Thr-Asp-Tyr-Ser-Asp-Cys] (H-LSCKCGKCNTDYSDC-NH2; N-terminus assumed) | – | 10/11 | significantly inhibited cAMP production | – | effectively inhibit TSH-mediated cAMP generation | – | inhibitory effect | inhibit binding of TSH to human thyroid membrane | – | –
C[C@@H](O)[C@H](NC(=O)[C@H](CS)NC(=O)[C@H](Cc1ccc(O)cc1)NC(=O)[C@H](CC(N)=O)NC(=O)[C@@H](NC(=O)[C@@H](N)CCCCN)[C@@H](C)O)C(=O)N[C@@H](CCCCN)C(=O)N1CCC[C@H]1C(=O)N[C@@H](CCC(N)=O)C(=O)N[C@@H](CCCCN)C(=O)N[C@@H](CO)C(=O)N[C@@H](Cc1ccc(O)cc1)C(=O)O [β101-112, Lys-Thr-Asn-Tyr-Cys-Thr-Lys-Pro-Gln-Lys-Ser-Tyr] (H-KTNYCTKPQKSY-OH) | 106 ± 8.7 µM | 10/11 | significantly inhibited cAMP production | – | effectively inhibit TSH-mediated cAMP generation | 80 ± 9 µM | – | inhibit binding of TSH to human thyroid membrane | inhibitory effect | –
EGF: purified murine epidermal growth factor, unlabeled | – | – | – | – | – | – | – | – | – | 0.000252 µM
